According to patent US11058738B2, “Herbal preparation for accelerating wounds and skin inflammations healing, especially for treatment of herpes and acne, and its application” (WYŻSZA SZKOŁA MEDYCZNA W BIAŁYMSTOKU, priority 2015, dated 2021):

Key:
[1] = test system: open wounds; assay: Epithelialization and wound healing in mammals with open wounds; assay type: in vivo
Experimental: A following semi-solid preparation was prepared for the study which was obtained by mixing together: • 40% w/w Melittis melissophyllum L. from the whole plant, • 20% w/w of 96% ethyl alcohol, • 40% w/w Vaseline album—a hydrocarbon based substance used in lipophilic ointments.
The substance, etched by ethyl alcohol, is dissolved with help of heat in a smooth ointment medium for better dispersion ofbiologically active substances contained in the test extract. It could also be mixed in a cold lipophilic medium. It is important that the substance has been dissolved in the medium at the concentration below saturation.
In the study three groups of mammals with open wounds were involved:
I control group—no treatment was applied to the wound, even antiseptic one.
II group—a typical antiseptic agent was used, chlorhexidine, in accordance with a standard protocol regarding a treatment of an infected wound.
III group—the herbal preparation with a Melittis melissophyllum L. extract was used.
The herbal preparation applied in a treatment of open wounds. It was used in a similar way as described in Example I. The experiment confirmed that the herbal preparation based on Melittis melissophyllum L. definitely accelerates repair processes during the wound healing.

[2] = test system: neutrophil white blood cells from the wound surface; assay: Phagocytic activity of white blood cells (latex particles) from the healing wound surface; assay type: in vivo, mammals
Experimental: Phagocytic activity of white blood cells was assessed using phagocytic index (PI)—a percentage of phagocytes containing absorbed latex particles, and an amount of phagocytes (IF)—the average number of particles per phagocyte.
The established phagocytic activity of neutrophil white blood cells from the wound surface in different periods of the wound healing, i.e. an increase in phagocytic index and number of phagocytes due to presence of the Melittis melissophyllum L. extract, is shown in Table 2. It was found for the first time that the Melittis melissophyllum L. extract has a high therapeutic activity during a wound healing period in all stages of the wound healing, accelerating the wound repair process and cells proliferation, therefore ensuring the complete wound healing much earlier.

## [H]/N=C(\N/C(=N/[H])NCCCCCCNC(=N)NC(=N)Nc1ccc(Cl)cc1)Nc1ccc(Cl)cc1 [Chlorhexidine, chlorhexidine]
[1]
  complete epithelialization of the wound surface: 12-th or 13-th
[1]; topical
  Beginning epitelialization: 3.9 ± 0.4 24-hours
  Beginning of rejection of the crust: 7.6 ± 0.5 24-hours
  Complete wound healing: 11.25 ± 0.19 24-hours
  Full crust rejection: 10.5 ± 0.3 24-hours
[2]; 3 day after granulation
  IF (amount of phagocytes, average number of particles per 1 phagocyte): 10.0 ± 2.5
  PI (phagocytic index, percentage of phagocytes containing latex particles): 61.60 ± 9.49%
[2]; 5 day after granulation
  IF (amount of phagocytes, average number of particles per 1 phagocyte): 14.0 ± 3.0
  PI (phagocytic index, percentage of phagocytes containing latex particles): 59.01 ± 4.58%
[2]; 7 day after granulation
  IF (amount of phagocytes, average number of particles per 1 phagocyte): 11.0 ± 3.0
  PI (phagocytic index, percentage of phagocytes containing latex particles): 48.20 ± 5.51%
